This passage reports TGI results from PubChem BioAssay (NCI).

Among the test systems are A549 NSCLC; HCC-2998 colon; MALME-3M melanoma; MCF7 breast; NCI-H226 lung; OVCAR-3 ovarian; OVCAR-4 ovarian; OVCAR-5 ovarian; RXF 393 renal; SF-539 CNS; SK-MEL-28 melanoma; SW-620 colon.
Assay in all cases: NCI tumour cell line growth inhibition, 48 h

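Five concentrations, 48 hours, 96-well plates. TGI is the concentration that stops growth completely.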

Consider `NC1=NN(c2ccccc2)C2(O)c3ccncc3C3=NN(c4ccccc4)C(=O)C132` (stereo unspecified), for which the TGI in the test with A549 NSCLC, with HCC-2998 colon, with MALME-3M melanoma, with MCF7 breast, in the test with NCI-H226 lung and in the test on OVCAR-3 ovarian was over 100 µM each time. Besides, the TGI in the test on OVCAR-4 ovarian, in the test on OVCAR-5 ovarian, in the test with RXF 393 renal, in the test on SF-539 CNS, with SK-MEL-28 melanoma and in the test on SW-620 colon was over 100 µM in each case.
Take `COc1ccc(C(c2c[nH]c3ccc(Br)cc23)c2c[nH]c3ccc(Br)cc23)cc1`: the TGI with A549 NSCLC was determined as 1.22 µM; in the test on HCC-2998 colon it was 0.353 µM; in the test with MALME-3M melanoma it was 2.23 µM; in the test on MCF7 breast, 0.765 µM; in the test with NCI-H226 lung, 1.7 µM; in the test on OVCAR-3 ovarian, 0.52 µM. The TGI turned out to be 1.25 µM with OVCAR-4 ovarian; 1.2 µM in the test on OVCAR-5 ovarian; 0.578 µM with RXF 393 renal; 2.06 µM with SF-539 CNS; 0.743 µM in the test on SK-MEL-28 melanoma; 1.1 µM in the test with SW-620 colon.
As to `COC1=C(N2CC2)C(=O)c2nc3n(c2C1=O)CCC3`, the TGI stood at 6.47 µM with A549 NSCLC; 2.44 µM with HCC-2998 colon; 0.827 µM with MALME-3M melanoma; 4.08 µM in the test with MCF7 breast; 4.76 µM in the test with NCI-H226 lung; 10.7 µM in the test with OVCAR-3 ovarian. For the same compound, the TGI in the test with OVCAR-4 ovarian is 0.526 µM; with OVCAR-5 ovarian, 3.46 µM; in the test with RXF 393 renal, 0.261 µM; in the test on SF-539 CNS it was 7.79 µM; with SK-MEL-28 melanoma, 12.2 µM; in the test with SW-620 colon it was 2.19 µM.
For `CCOP(=O)(OCC)c1ccc(=O)[nH]c1-c1cccs1`, the TGI in the test with A549 NSCLC, with HCC-2998 colon, in the test with MALME-3M melanoma, with MCF7 breast, in the test on NCI-H226 lung and with OVCAR-3 ovarian was over 100 µM each time. Further, the TGI in the test with OVCAR-4 ovarian, in the test on OVCAR-5 ovarian, in the test with RXF 393 renal, with SF-539 CNS, in the test on SK-MEL-28 melanoma and in the test with SW-620 colon was over 100 µM each time.
For the compound `C=C(Br)CN(C(C)=O)C1CCCCC1`, the TGI in the test with A549 NSCLC, with HCC-2998 colon, in the test on MALME-3M melanoma, in the test on MCF7 breast, with NCI-H226 lung and with OVCAR-3 ovarian was over 100 µM in each case. Also, the TGI in the test on OVCAR-4 ovarian, in the test on OVCAR-5 ovarian, in the test on RXF 393 renal, in the test on SF-539 CNS, in the test on SK-MEL-28 melanoma and in the test on SW-620 colon was over 100 µM throughout.
For the compound `COc1cc(NCc2ccc3nc(OC)c(OC)nc3c2)cc(OC)c1OC`, the TGI in the test with A549 NSCLC, with HCC-2998 colon, in the test with MALME-3M melanoma, in the test with MCF7 breast, in the test on NCI-H226 lung and with OVCAR-3 ovarian was over 100 µM in each case. Further, the TGI in the test with OVCAR-4 ovarian, in the test with OVCAR-5 ovarian, in the test with RXF 393 renal, in the test on SF-539 CNS, in the test with SK-MEL-28 melanoma and in the test with SW-620 colon was over 100 µM in each case.
With `N#CC(Nc1ccccc1)c1ccc(C(C#N)Nc2ccccc2)cc1` (stereo unspecified), the TGI with A549 NSCLC, in the test on HCC-2998 colon, with MALME-3M melanoma, with MCF7 breast, in the test with NCI-H226 lung and with OVCAR-3 ovarian was over 100 µM each time. Moreover, the TGI in the test on OVCAR-4 ovarian was over 100 µM; with OVCAR-5 ovarian it was over 100 µM; in the test with RXF 393 renal it was over 100 µM; in the test with SF-539 CNS, 69 µM; in the test on SK-MEL-28 melanoma, over 100 µM; in the test with SW-620 colon, over 100 µM.
Take `COc1ccc(/C=C2\CCCCCC2=O)cc1`: the TGI in the test with A549 NSCLC, in the test on HCC-2998 colon, with MALME-3M melanoma, with MCF7 breast, with NCI-H226 lung and in the test on OVCAR-3 ovarian was over 100 µM throughout. Further, the TGI with OVCAR-4 ovarian, in the test with OVCAR-5 ovarian, with RXF 393 renal, with SF-539 CNS, in the test with SK-MEL-28 melanoma and in the test with SW-620 colon was over 100 µM in each case.
